Source: patent publication US11286231B2, “Hydrogen-bonding compounds, compositions comprising the same, and methods of preparing and using the same” (Wake Forest University Health Sciences, priority 2016, dated 2022)

What was measured:
Type in all cases: cell-based
Caco-2 [1] = test: 3D Live/Dead assay with red vs green pixel analysis; settings: Caco-2, 3D, days 1, 4, 7; 1% w/v compound solution
Procedure: (§1) 3.0×10^6 HepG2 and Caco-2 cells were harvested from the tissue culture dishes, respectively. Following, they were centrifuged into cell pellets and the supernatant was discarded. For each cell line, HepG2 and Caco2, three conditions were prepared, i.e., a positive control (HyStem®) and two experimental conditions (HyStem®+C1.1 and HyStem®+C1.2). To prepare each condition, a 3.0×10^6 cell pellet was suspended in 500 μL 1% w/v Heprasil®, 500 μL 1% w/v Gelatin-S®, 125 μL of 2% w/v Extralink®, and 125 μL of 1% w/v C1.1/C1.2 (experimental conditions) or 125 μL of sterile, deionized water (positive control). The final cell density for each condition was […]. One 50 μL sample of each hydrogel condition at each condition was aliquoted into a 96-well for each time point (1, 4, and 7 days). […] At each time point media was aspirated from the wells and were subsequently incubated for 45-60 min with 200 μL of DPBS containing […] of calcein AM and […] of ethidium homodimer. Live cells fluoresce green due to the uptake and hydrolysis of calcein AM, and the nuclei of dead cells are labelled by the red-fluorescent ethidium homodimer.
(§2) A MATLAB (MathWorks®) script (supplemental information, S.3) was used to quantify red and green fluorescent signals generated by biochemical interactions between the ethidium homodimer and calcein AM, and cells, respectively.
(§3) Quantification of the red (dead) and green (viable) pixels was performed using an image processing script written on MATLAB (S.3). In this case, the live cell staining corresponds with the cytoplasm of the cell while the dead stain only highlights the nuclei of the cell therefore we use the ratio of red to green pixels as a quantification to show the relative cell-viability rather than report individual Live/Dead cell quantification over time.

HepG2 [2] = test: as above; settings: HepG2, 3D, days 1, 4, 7; 1% w/v compound solution
Procedure: as §1, §2, §3

Caco-2 [3] = test: 2D 7-day MTS assay, cell proliferation on hydrogels; settings: Caco-2, 2D on hydrogel, days 1, 4, 7, 490 nm, FIG. 7
Procedure: (§4) At the proper confluency, the plates were washed with 10 mL of DPBS followed by an addition of 5 mL of trypsin and a 5 min incubation time at 37° C. Upon the conclusion of the incubation time light microscopy was used to determine that the cells had become detached. 5 mL of DMEM-10-1 was added to the plate and the trypsin/DMEM mixture was transferred into a 15 mL conical tube. A 1:4:5 ratio of cell mixture/DMEM-10-1/trypan blue was created in a 2.0 mL cryogenic vial. The mixture contained ˜1.2×10^5 cells-mL-1. The cells were pelleted down by centrifugation at 1500 rpm for 5 minutes and the trypsin/DMEM mixture was aspirated. The cells were resuspended in 10 mL of DMEM-10-1. For the MTS assay, 3.0×10^4 cells per well were seeded (In total 2.43×10^6 cells are needed for 81 wells). In each well (n=3 per time point) of a 96 well plate 16 μL of Heprasil® ([…], 1% w/v), 16 μL of Gelatin-S® (10 mg-mL-1, 1% w/v), 4 μL of Extralink® (5 mg 0.250 μL-1, 2% w/v), and 4 μL of modular catecholamine ([…], 3.6 mM, 1% w/v), C1.1 and C1.2, respectively were mixed by gently pipetting the solution up and down. The wells were then exposed to UV radiation (˜222 nm) for 3 seconds at distance of 1 cm to initiate crosslinking and form the hydrogel matrix. Approximately 30,000 cells were seeded per well; 200 μL of DMEM+10% FBS+1% pen-strep media at a density of 1.2×10^5 cells-mL-1 were aliquoted into each well, Caco-2 and HepG2 cell lines, respectively. A total of 27 wells per time point (3 per condition-positive control, catecholamine (C1.1), and catecholamide (C1.2) for each cell line, Caco-2 and HepG2. For the 3D cell cultural technique and amount of cells used in the live/dead assay refer to the Live/Dead Assay section.
(§5) The MTS assay is widely-used as a nonradioactive quantification of cellular proliferation, viability, and cytotoxicity.28 The MTS assay based on the reduction of MTS tetrazolium compound by viable cells to generate a colored formazan product that is soluble in cell culture media. This conversion is thought to be carried out by NAD(P)H-dependent dehydrogenase enzymes in metabolically active cells. MTS assays were performed using a CellTiter 96® AQueous One Solution Cell Proliferation Assay (G3582, Promega) at days 1, 4, 7. […] At the conclusion of the 45-minute incubation period a Molecular Device SpectraMax M5 plate reader was used to determine the optical density of each well monitored at 490 nm. […] Reported uncertainties were calculated using the standard deviations between the normalized OD values for n=3 runs of each condition.
(§6) In addition to Live/Dead assays, MTS assays were used to quantify the proliferation of cells. In this case, the ability for cells to proliferate in 2D when seeded on the hydrogels was assessed.

HepG2 [4] = test: as above; settings: HepG2, 2D on hydrogel, days 1, 4, 7, 490 nm, FIG. 7
Procedure: as §4, §5, §6

Row | SMILES | biocompatibility / cell viability in hydrogel (Live/Dead) (Caco-2 [1]) | biocompatibility / cell viability in hydrogel (Live/Dead) (HepG2 [2]) | cell proliferation, normalized optical density (MTS) compared to control (Caco-2 [3]) | cell proliferation, normalized optical density (MTS) compared to control (HepG2 [4])
1 | C#CCNCc1ccc(O)c(O)c1 [Compound C1.1] | only a slightly depressed biocompatibility | only a slightly depressed biocompatibility | higher | higher
2 | C#CCNC(=O)Cc1ccc(O)c(O)c1 [Compound C1.2] | only a slightly depressed biocompatibility | only a slightly depressed biocompatibility | higher | higher
